In patent US6828339B2, “Amlodipine salt forms and processes for preparing them” (Synthon BV, priority 2001, dated 2004):
Values belong to the compound of their own block, whether it stands above or below them.

Assays:
Assay type in all cases: physicochemical
[1] = Weight gain of dried (anhydrate) salt form on exposure to air; conditions: exposed to air
Text: 1(c). A sample of the anhydrate formed in example 1(b) was exposed to air and the weight gain recorded as follows: […]

[2] = Annealing of the dihydrate, form checked by IR
Description: 1(d). A sample from example 1(a) was annealed for 10 minutes at 90° C. while another sample of the same product was annealed for 30 minutes at 145° C. […] The IR for the sample annealed for 10 minutes is as shown in FIG. 4 and the IR for the sample annealed for 30 minutes is as shown in FIG. 5.

[3] = Weight loss on drying in a vacuum oven; conditions: vacuum oven at 40° C. for 65 hours
Description: 1(b). 735.1 mg of the product of example 1(a) was dried in a vacuum oven at 40° C. for 65 hours. The weight loss was 0.043 g or 5.85%, which corresponds to 1.9 moles of water per mole of amlodipine.

[4] = Light sensitivity; conditions: compared with known anhydrate
[5] = Stability in solid state and in solution
[6] = compared with known prior art anhydrate

moles of water taken up for one mole of amlodipine ([1]; 21 hour): two
Weight after 30 min ([1]; weight at start 103.1 mg): 105.7 mg
Weight after 1 hour ([1]; weight at start 103.1 mg): 107.3 mg
Weight after 3.5 hour ([1]; weight at start 103.1 mg): 109.3 mg
Weight after 21 hour ([1]; weight at start 103.1 mg): 109.3 mg
Compound: CCOC(=O)C1=C(COCCN)NC(C)=C(C(=O)OC)C1c1ccccc1Cl.O=S(=O)(O)c1ccccc1 (centres unmarked) [example 1(b)]

mole of water taken up for one mole of amlodipine ([1]; 21 hour): one
Weight after 30 min ([1]; weight at start 318.6 mg): 320.3 mg
Weight after 1 hour ([1]; weight at start 318.6 mg): 323.9 mg
Weight after 3.5 hour ([1]; weight at start 318.6 mg): 328.2 mg
Weight after 21 hour ([1]; weight at start 318.6 mg): 328.2 mg
Compound: CCOC(=O)C1=C(COCCN)NC(C)=C(C(=O)OC)C1c1ccccc1Cl.O=S(=O)(O)c1ccccc1 (centres unmarked) [example 2(a)]

Compound: amlodipine besylate dihydrate [example 1(a)]
form after annealing (IR) ([2]; annealed for 10 minutes at 90° C.): converted to the known anhydrate form
form after annealing (IR) ([2]; annealed for 30 minutes at 145° C.): converted to the known anhydrate form
moles of water per mole of amlodipine lost [3]: 1.9 mol

Compound: amlodipine besylate monohydrate
light sensitivity [4]: slightly less in comparison to the known anhydrate
stability in solid state [5, 6]: equivalent to the known prior art amlodipine besylate anhydrate form
stability in solution [5, 6]: equivalent to the known prior art amlodipine besylate anhydrate form
stability of hydrate form ([5]; monohydrate compared with dihydrate, conversion by heating): more stable than the dihydrate form
